Experimental data reported in patent publication US9868748B2, “Thiazolopyrrolidine inhibitors of ROR- γ” (Vitae Pharmaceuticals, Inc., priority 2013, dated 2018).
Like-named read-outs stand apart in the source and are kept apart here.

Experiments:
[1] = biological target: full-length RORγt in Jurkat cells (Homo sapiens (Human), UniProt P51449); experiment: RORγt 5xRORE Assay in Jurkat Cells (Assay 2); assay type: cell-based; conditions: Nanoluc luciferase reporter, 16-18 hrs
Method in brief: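 Inverse agonist activity was read as NanoGlo luminescence from conditioned medium after 16–18 h compound exposure (37 °C, 0.1% DMSO final). The cells were Jurkat, transiently transfected with RORγt and a secNluc reporter carrying five RORE repeats, seeded 80,000 per well in delipidated-serum RPMI.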

[2] = biological target: recombinant RORγ Ligand Binding Domain (LBD) protein (Homo sapiens (Human), UniProt P51449); experiment: Radio-Ligand RORγ Binding Assay (Assay 1); conditions: competition with 25-hydroxy [26,27-3H]-cholesterol, SPA, read-out: RORγ Binding Ki Range*
Method in brief: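 Recombinant human RORγ ligand binding domain (6×His-GST fusion, 24 nM stock) competed with tritiated 25-hydroxycholesterol (8.6 nM stock) in HEPES buffer pH 7.4 with detergents and DTT; poly-Lys YSi SPA beads, room temperature, tritium SPA signal. Four-parameter IC50 from semi-log dilutions, normalised to DMSO and 10 μM T0901317, then Ki via KD equation.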

[3] = Table 9, read-out: RORγt5X IC50 Range*
[4] = Table 8, read-out: RORγt5X IC50 Range*

Sequence of full-length RORγt in Jurkat cells (P51449 other isoform, or with tags, fused parts or gaps): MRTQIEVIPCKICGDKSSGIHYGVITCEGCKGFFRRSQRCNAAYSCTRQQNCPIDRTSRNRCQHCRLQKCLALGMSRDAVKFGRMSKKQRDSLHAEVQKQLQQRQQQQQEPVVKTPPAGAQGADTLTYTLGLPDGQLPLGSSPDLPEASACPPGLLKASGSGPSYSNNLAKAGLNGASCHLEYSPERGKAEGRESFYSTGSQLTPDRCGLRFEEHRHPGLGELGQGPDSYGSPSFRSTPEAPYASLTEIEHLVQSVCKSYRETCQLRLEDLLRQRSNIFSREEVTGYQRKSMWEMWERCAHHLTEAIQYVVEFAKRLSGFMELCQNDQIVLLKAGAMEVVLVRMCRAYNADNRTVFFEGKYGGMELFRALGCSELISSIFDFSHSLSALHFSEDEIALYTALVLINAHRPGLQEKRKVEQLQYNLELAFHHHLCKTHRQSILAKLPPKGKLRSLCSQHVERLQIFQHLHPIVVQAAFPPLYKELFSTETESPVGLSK
Sequence of recombinant RORγ Ligand Binding Domain (LBD) protein (P51449 269-508): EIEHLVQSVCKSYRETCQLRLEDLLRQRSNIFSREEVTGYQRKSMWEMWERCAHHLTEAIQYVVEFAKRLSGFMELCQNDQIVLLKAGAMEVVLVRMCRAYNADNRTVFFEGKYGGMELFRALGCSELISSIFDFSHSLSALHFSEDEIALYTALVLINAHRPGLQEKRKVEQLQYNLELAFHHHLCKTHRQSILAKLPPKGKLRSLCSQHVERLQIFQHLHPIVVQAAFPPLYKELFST

IC50 [1, 3] [nM]	Ki ([2]; Table 9) [nM]	IC50 [1, 4] [nM]	Ki ([2]; Table 8) [nM]	SMILES
> 1000	< 100	–	–	CCS(=O)(=O)c1ccc(CC(=O)Nc2nc3c(s2)CN(C[C@H]2CC[C@](C)(C#N)CC2)[C@H]3C(C)C)cc1 (single isomer, unassigned)
> 1000	< 100	–	–	CCS(=O)(=O)c1ccc(CC(=O)Nc2nc3c(s2)CN(C[C@@H]2CC[C@H](C(F)(F)F)NC2)[C@H]3C(C)C)nc1 (single isomer, unassigned)
> 1000	< 100	–	–	CCS(=O)(=O)c1ccc(CC(=O)Nc2nc3c(s2)CN(C[C@@H]2CC[C@H](C(F)(F)F)OC2)[C@H]3C(C)C)nc1 (single isomer, unassigned)
> 1000	< 100	–	–	CCS(=O)(=O)c1ccc(CC(=O)Nc2nc3c(s2)CN(C[C@H]2CC[C@@H](C(F)(F)F)NC2)[C@H]3C(C)C)cc1 (single isomer, unassigned)
> 1000	< 100	–	–	CCS(=O)(=O)c1ccc(CC(=O)Nc2nc3c(s2)CN([C@@H](C)c2ccccc2)[C@@H]3C(C)C)cc1 (single isomer, unassigned)
–	–	< 100	< 100	CCS(=O)(=O)c1ccc(CC(=O)Nc2nc3c(s2)CN(Cc2ccc(OC(F)F)cc2)[C@H]3C(C)C)cc1 [I-A1, (S)—N-(5-(4-(difluoromethoxy)benzyl)-4-isopropyl-5,6-dihydro-4H-pyrrolo[3,4-d]thiazol-2-yl)-2-(4-(ethylsulfonyl)phenyl)acetamide]
–	–	< 100	< 100	CCS(=O)(=O)c1ccc(CC(=O)Nc2nc3c(s2)CN(Cc2ccc(C(F)(F)F)cc2)[C@H]3C(C)C)cc1 [I-A2, (S)-2-(4-(ethylsulfonyl)phenyl)-N-(4-isopropyl-5-(4-(trifluoromethyl)benzyl)-5,6-dihydro-4H-pyrrolo[3,4-d]thiazol-2-yl)acetamide]
–	–	< 100	< 100	CCS(=O)(=O)c1ccc(CC(=O)Nc2nc3c(s2)CN(Cc2ncc(C(F)(F)F)cn2)[C@H]3C(C)C)cc1 [I-A6]
–	–	> 1000	< 100	CCS(=O)(=O)c1ccc(CC(=O)Nc2nc3c(s2)CN(Cc2ccccc2)[C@H]3C(C)C)cc1 [I-A7]
–	–	< 100	< 100	CCS(=O)(=O)c1ccc(CC(=O)Nc2nc3c(s2)CN(Cc2ncc(Cl)cc2F)[C@H]3C(C)C)cc1 [I-A10]
–	–	< 100	< 100	CCS(=O)(=O)c1ccc(CC(=O)Nc2nc3c(s2)CN(Cc2ccc(Cl)cn2)[C@H]3C(C)C)cc1 [I-A11]
–	–	< 100	< 100	CCS(=O)(=O)c1ccc(CC(=O)Nc2nc3c(s2)CN(C[C@H]2CC[C@H](C(F)(F)F)CC2)[C@H]3C(C)C)cc1 [I-A17, 2-(4-(ethylsulfonyl)phenyl)-N—((S)-4-isopropyl-5-((trans-4-(trifluoromethyl)cyclohexyl)methyl)-5,6-dihydro-4H-pyrrolo[3,4-d]thiazol-2-yl)acetamide]
–	–	< 100	< 100	CCS(=O)(=O)c1ccc(CC(=O)Nc2nc3c(s2)CN(Cc2ccc(-c4ccn(C)c(=O)c4)cc2)[C@H]3C(C)C)cc1 [I-A18, (S)-2-(4-(ethylsulfonyl)phenyl)-N-(4-isopropyl-5-(4-(1-methyl-2-oxo-1,2-dihydropyridin-4-yl)benzyl)-5,6-dihydro-4H-pyrrolo[3,4-d]thiazol-2-yl)acetamide]
–	–	< 100	< 100	CCS(=O)(=O)c1ccc(CC(=O)Nc2nc3c(s2)CN(C[C@H]2CC[C@H](C(F)(F)F)N(C)C2)[C@H]3C(C)C)cc1 [I-A22]
–	–	< 100	< 100	CCS(=O)(=O)c1ccc(CC(=O)Nc2nc3c(s2)CN(C[C@H]2CC[C@H](c4nnc(C)o4)CC2)[C@H]3C(C)C)cc1 [I-A23]
–	–	< 100	< 100	CCS(=O)(=O)c1ccc(CC(=O)Nc2nc3c(s2)CN([C@H](C)c2ccc(Br)cc2F)[C@H]3C(C)C)cc1 [I-A24]
–	–	< 100	< 100	CCS(=O)(=O)c1ccc(CC(=O)Nc2nc3c(s2)CN([C@@H](C)c2ccc(Br)cc2F)[C@H]3C(C)C)cc1 [I-A25]
–	–	< 100	< 100	CCS(=O)(=O)c1ccc(CC(=O)Nc2nc3c(s2)CN(C[C@H]2CC[C@H](C(F)(F)F)OC2)[C@H]3C(C)C)cc1 [I-A27]
–	–	< 100	< 100	CCS(=O)(=O)c1ccc(CC(=O)Nc2nc3c(s2)CN(C[C@@H]2CC[C@@H](C(F)(F)F)N(C)C2)[C@H]3C(C)C)cc1 [I-A29]
–	–	< 100	< 100	CCS(=O)(=O)c1ccc(CC(=O)Nc2nc3c(s2)CN(Cc2ccc(C(F)(F)F)c(OC)n2)[C@H]3C(C)C)cc1 [I-A31]
–	–	< 100	< 100	CCS(=O)(=O)c1ccc(CC(=O)Nc2nc3c(s2)CN(C(C)c2c(F)cc(Cl)cc2F)[C@H]3C(C)C)cc1 (some centres unmarked) [I-A32]

More lines, now with the values behind:

SMILES	IC50 [1, 3] [nM]	Ki ([2]; Table 9) [nM]	IC50 [1, 4] [nM]	Ki ([2]; Table 8) [nM]
CCS(=O)(=O)c1ccc(CC(=O)Nc2nc3c(s2)CN(C[C@H]2CC[C@@](C)(C#N)CC2)[C@H]3C(C)C)cc1 (single isomer, unassigned)	< 100	< 100	–	–
CCS(=O)(=O)c1ccc(CC(=O)Nc2nc3c(s2)CN(C[C@H]2CC[C@](OC)(C(F)(F)F)CC2)[C@H]3C(C)C)nc1 (single isomer, unassigned)	< 100	< 100	–	–
CCS(=O)(=O)c1ccc(CC(=O)Nc2nc3c(s2)CN(C[C@H]2CC[C@@](OC)(C(F)(F)F)CC2)[C@H]3C(C)C)nc1 (single isomer, unassigned)	100 to 1000	< 100	–	–
CCS(=O)(=O)c1ccc(CC(=O)Nc2nc3c(s2)CN(C[C@H]2CC[C@@H](C(F)(F)F)OC2)[C@H]3C(C)C)cc1 (single isomer, unassigned)	> 1000	< 100	–	–
CCS(=O)(=O)c1ccc(CC(=O)Nc2nc3c(s2)CN(C[C@@H]2CC[C@H](C(F)(F)F)NC2)[C@H]3C(C)C)cc1 (single isomer, unassigned)	> 1000	< 100	–	–
CC(C)[C@@H]1c2nc(NC(=O)Cc3ccc(S(C)(=O)=O)cc3)sc2CN1[C@H](C)c1ccc(OC(F)(F)F)cc1 (single isomer, unassigned)	> 1000	100 to 1000	–	–
CCS(=O)(=O)c1ccc(CC(=O)Nc2nc3c(s2)CN([C@H](C)c2ccccc2)[C@@H]3C(C)C)cc1 (single isomer, unassigned)	> 1000	< 100	–	–
CCS(=O)(=O)c1ccc(CC(=O)Nc2nc3c(s2)CN(C[C@H]2CC[C@H](C(F)(F)F)NC2)[C@H]3C(C)C)nc1 (single isomer, unassigned) [drawing 211]	100 to 1000	100 to 1000	–	–
CCS(=O)(=O)c1ccc(CC(=O)Nc2nc3c(s2)CN(C[C@H]2CC[C@H](C(F)(F)F)NC2)[C@H]3C(C)C)nc1 (single isomer, unassigned) [drawing 212]	> 1000	< 100	–	–
CCS(=O)(=O)c1ccc(CC(=O)Nc2nc3c(s2)CN(Cc2ccc(C#N)c(F)c2)[C@H]3C(C)C)cc1 [I-A4]	–	–	< 100	< 100
CCS(=O)(=O)c1ccc(CC(=O)Nc2nc3c(s2)CN(Cc2ccc(C#N)cn2)[C@H]3C(C)C)cc1 [I-A5]	–	–	< 100	< 100
CCS(=O)(=O)c1ccc(CC(=O)Nc2nc3c(s2)CN(Cc2cccc(C(F)(F)F)c2)[C@H]3C(C)C)cc1 [I-A8]	–	–	> 1000	< 100
CCS(=O)(=O)c1ccc(CC(=O)Nc2nc3c(s2)CN(Cc2nnc(C(F)(F)F)o2)[C@H]3C(C)C)cc1 [I-A9]	–	–	> 1000	< 100
CCS(=O)(=O)c1ccc(CC(=O)Nc2nc3c(s2)CN(Cc2ccc(C#N)cc2F)[C@H]3C(C)C)cc1 [I-A13]	–	–	< 100	< 100
CCS(=O)(=O)c1ccc(CC(=O)Nc2nc3c(s2)CN(Cc2ccc(F)cc2)[C@H]3C(C)C)cc1 [I-A14]	–	–	> 1000	< 100
CCS(=O)(=O)c1ccc(CC(=O)Nc2nc3c(s2)CN(Cc2ccc(C#N)cc2)[C@H]3C(C)C)cc1 [I-A15]	–	–	< 100	< 100
CCS(=O)(=O)c1ccc(CC(=O)Nc2nc3c(s2)CN(Cc2ccc(OC(F)(F)F)cc2)[C@H]3C(C)C)cc1 [I-A16]	–	–	< 100	< 100
CCS(=O)(=O)c1ccc(CC(=O)Nc2nc3c(s2)CN(Cc2ccc(-c4ccc(=O)n(C)c4)cc2)[C@H]3C(C)C)cc1 [I-A19, (S)-2-(4-(ethylsulfonyl)phenyl)-N-(4-isopropyl-5-(4-(1-methyl-6-oxo-1,6-dihydropyridin-3-yl)benzyl)-5,6-dihydro-4H-pyrrolo[3,4-d]thiazol-2-yl)acetamide]	–	–	< 100	< 100
CCS(=O)(=O)c1ccc(CC(=O)Nc2nc3c(s2)CN(CC2CCN(CC(F)(F)F)CC2)[C@H]3C(C)C)cc1 [I-A20, (S)-2-(4-(ethylsulfonyl)phenyl)-N-(4-isopropyl-5-((1-(2,2,2-trifluoroethyl)piperidin-4-yl)methyl)-5,6-dihydro-4H-pyrrolo[3,4-d]thiazol-2-yl)acetamide]	–	–	< 100	< 100
CCS(=O)(=O)c1ccc(CC(=O)Nc2nc3c(s2)CN(Cc2ccc(C(F)(F)F)nc2C)[C@H]3C(C)C)cc1 [I-A21]	–	–	< 100	< 100
CCS(=O)(=O)c1ccc(CC(=O)Nc2nc3c(s2)CN(C[C@@H]2CC[C@@H](C(F)(F)F)OC2)[C@H]3C(C)C)cc1 [I-A26]	–	–	< 100	< 100
CCS(=O)(=O)c1ccc(CC(=O)Nc2nc3c(s2)CN(C[C@H]2CC[C@H](OC(F)F)CC2)[C@H]3C(C)C)cc1 [I-A28]	–	–	< 100	< 100
